Entries after “also recorded” stand apart in the source; their conditions may differ.
Experiments:
[1] = system: oral squamous carcinoma stem cells (OSCSCs); test: Microscopy of cell morphology and viability; type: cell-based, human; settings: WIN 55,212-2 even at the lowest concentrations; CDDP 50 μg/mL; 24 h
[2] = system: Oral squamous carcinoma cells (OSCCs)
[3] = system: PL-12 well-differentiated pancreatic tumor cells; settings: WIN 55,212-2, 48 h; mesylate
breast cancer cell lines = settings: not normal breast epithelium; cited from earlier work
[4] = system: MIA PaCa-2 (MP2) poorly differentiated/stem like pancreatic tumor cells
[5] = system: oral squamous carcinoma stem cells (OSCSCs); test: Cell death by propidium iodide staining and flow cytometry; type: cell-based, human
Protocol: (§1) After an overnight incubation the cells were washed twice and stained with propidium iodide (PI) at a concentration of 3 μg/ml. Flow cytometric analysis was performed using Attune flow cytometer results were analyzed using FlowJo vX software (Ashland, Oreg.).

[6] = system: Oral squamous carcinoma cells (OSCCs); test: as above; type: cell-based, human; settings: WIN 55,212-2 75 and 100 μM, 24 hours
Protocol: as §1

[7] = system: oral squamous carcinoma stem cells (OSCSCs); test: Viable cell count (Trypan Blue) after treatment; type: cell-based, human; settings: WIN 55,212-2 10, 25, 50, 100 μM; CDDP 50 μg/ml; 24 hours; mesylate
Protocol: (§2) Oral squamous carcinoma cells (OSCCs) and oral squamous carcinoma stem cells (OSCSCs) were isolated from cancer patients with tongue tumors at UCLA. The cells were cultured in RPMI 1640 complete medium with 10% fetal bovine serum (FBS) 1.4% Antibiotic-Antimycotic, 1% sodium pyruvate, 1.4% non-essential amino acids, 1% L-glutamine, 0.2% gentamicin (Gemini Bio-Products, CA, USA), and 0.15% sodium bicarbonate (Fisher Scientific, PA, USA).
(§3) As shown in FIG. 1A-1E, OSCSCs are affected more by WIN 55,212-2 than OSCCs. Both OSCCs (oral squamous carcinoma cells) and OSCSCs (oral squamous carcinoma stem cells) were treated with various concentrations of WIN 55,212-2 (10, 25, 50, and 100 μM) and CDDP (50 μg/ml), and the cell numbers were determined after 24 hours of treatment.
(§4) RPMI 1640 (Gibco, Thermo Fisher Scientific, USA) complete medium with 10% fetal bovine serum (FBS) (Gemini Bio-Products, San Diego, Calif., USA), 1.4% of non-essential amino acid (Gibco, Thermo Fisher Scientific, USA), 1.4% sodium pyruvate (Gibco, Thermo Fisher Scientific, USA), 0,15% of sodium bicarbonate (Fisher Scientific, Waltham, Mass., USA) and 1% antibiotics/antimycotics (Gemini Bio-Products, San Diego, Calif., USA) was used for oral tumor culture. DMEM (Gibco, Thermo Fisher Scientific, USA) supplemented with 10% FBS and 1% antibiotics/antimycotics was used for pancreatic tumor cell culture. Oral squamous carcinoma cells (OSCCs) and oral squamous carcinoma stem cells (OSCSCs) were isolated from cancer patients with tongue tumor at UCLA. Human pancreatic cancer cell lines MIA PaCa-2 (MP2) and PL-12 were generously provided by Dr. Guido Eibl (UCLA David Geffen School of Medicine) and by Dr. Nicholas Cacalano (UCLA Jonsson Comprehensive Cancer Center), respectively. […] CDDP was purchased from Ronald Reagan UCLA Medical Center Pharmacy. […] TNF-α and IFN-γ were purchased from Peprotech (Rockyhill, N.J.).
(§5) The number of viable cells was counted under light microscope using Trypan Blue staining (Sigma, Mo., USA).

[8] = system: Oral squamous carcinoma cells (OSCCs); test: Viable cell count (Trypan Blue) after treatment; type: cell-based, human; settings: 24 hours
Protocol: as §2, §3, §4, §5

[9] = system: mouse models of breast cancer, non-small cell lung cancer, and non-melanoma skin cancer; settings: cited from earlier work
[10] = system: PL-12 well-differentiated pancreatic tumor cells; test: Microscopy of cell morphology and viability; type: cell-based, human; settings: different concentrations of WIN 55,212-2; CDDP 50 μg/mL; 24 hours
[11] = system: Oral squamous carcinoma cells (OSCCs); test: Microscopy of cell morphology and viability; type: cell-based, human
[12] = system: MIA PaCa-2 (MP2) poorly differentiated/stem like pancreatic tumor cells; test: Viable cell count (Trypan Blue) after treatment; type: cell-based, human
From the text: (§6) Six different pancreatic tumor cell lines each characterized at poorly, intermediate and well differentiated stages pathologically by other laboratories previously were used to determine phenotype, susceptibility to NK cell-mediated cytotoxicity and secretion of IFN-γ directly correlating with the differentiation stages of the tumors. […] Furthermore, the stage of differentiation of the tumors was correlated with sensitivity to NK cell mediated cytotoxicity in pancreatic tumor cells. […] Therefore, a direct correlation between augmented sensitivity to NK-mediated lysis and poor differentiation of pancreatic tumors was evident from these experiments. For the following experiments MP2 and PL12 were used as representative tumor types for poorly differentiated and well differentiated tumors respectively. Human pancreatic cancer cell line MIA PaCa-2 (MP2), was provided by Dr. Guido Eibl (UCLA David Geffen School of Medicine) and PL12 was provided by Dr. Nicholas Cacalano (UCLA Jonsson Comprehensive Cancer Center). MP2 tumors were cultured with DMEM in supplement with 10% FBS and 1% Penicillin-Streptomycin (Gemini Bio-Products, CA). PL12 pancreatic tumors were cultured in RMPI 1640 medium supplemented with 10% FBS and 1% penicillin-streptomycin.
as §4, §5

[13] = system: PL-12 well-differentiated pancreatic tumor cells; test: Viable cell count (Trypan Blue) after treatment; type: cell-based, human
From the text: as §6, §4, §5

tumor = test: Cytostatic effect: tumor-cell coverage of the well-plate (FIG. 2); type: cell-based; settings: at higher concentrations (FIG. 2)
From the text: In FIG. 2, the cystostatic effect of WIN 55,212-2 are shown.

[14] = system: oral squamous carcinoma stem cells (OSCSCs)
[15] = system: MIA PaCa-2 (MP2) poorly differentiated/stem like pancreatic tumor cells; test: Cell death by propidium iodide staining and flow cytometry; type: cell-based, human
From the text: (§7) Propidium iodide (PI) staining was used to determine the cell death by flow cytometry.

[16] = system: PL-12 well-differentiated pancreatic tumor cells; test: as above; type: cell-based, human; settings: WIN 55,212-2 25-100 μM, 24-48 hours
From the text: as §7

[17] = system: MIA PaCa-2 (MP2) poorly differentiated/stem like pancreatic tumor cells; test: Microscopy of cell morphology and viability; type: cell-based, human; settings: different concentrations of WIN 55,212-2; CDDP 50 μg/mL; 24 hours
[18] = WIN 55,212-2 (5-50 μM), 24 hours, vs untreated control, mesylate
[19] = various concentrations of WIN 55,212-2, 24 hours and 48 hours (FIG. 4A-4B)
[20] = different concentrations of WIN 55,212-2, dose-dependent, 24-48 hours
[21] = WIN 55,212-2 (5-50 μM), 24 hours, mesylate

CS(=O)(=O)O.Cc1c(C(=O)c2cccc3ccccc23)c2cccc3c2n1[C@H](CN1CCOCC1)CO3 [WIN 55,212-2, (R)-(+)-[2,3-Dihydro-5-methyl-3-(4-morpholinylmethyl)pyrrolo[1,2,3-de]-1,4-benzoxazin-6-yl]-1-naphthalenylmethanone mesylate]
morphology/attachment of OSCSCs under the microscope [1]: became detached from the culture plates | CD44 cell surface expression, OSCCs [2, 18]: Decreased expression | CD54 cell surface expression, OSCCs [2, 18]: Decreased expression | MHC class I cell surface expression, OSCCs [2, 18]: Decreased expression | PD-L1 (B7H1) cell surface expression, OSCCs [2, 18]: Decreased expression | MHC class I expression on the cell surface, OSCCs [2, 19]: decreases in MHC class I expression | CD44 cell surface expression, PL-12 [3]: decreased expressions; also recorded: Decreased cell surface expression | CD54 cell surface expression, PL-12 [3]: decreased expressions; also recorded: decreased the expression | effect on radiotherapy / anti-proliferative effects of radiation (breast cancer cell lines): synergistically increased the effects of radiotherapy | CD44 cell surface expression, MP2 ([4]; WIN 55,212-2, 48 h, mesylate): decreased expressions; also recorded: Decreased cell surface expression | CD54 cell surface expression, MP2 ([4]; WIN 55,212-2, 48 h, mesylate): decreased expressions; also recorded: decreased the expression | MHC class I cell surface expression, MP2 ([4]; WIN 55,212-2, 48 h, mesylate): decreased expressions; also recorded: decreased on MP2 | PD-L1 (B7H1) cell surface expression, MP2 ([4]; WIN 55,212-2, 48 h, mesylate): decreased expressions; also recorded: decreased in MP2 | extent of decrease in all surface receptor expressions, MP2 compared with PL-12 ([4]; WIN 55,212-2 treatments (FIG. 17F)): significantly greater than those seen in PL-12 tumor cells | amounts of cell death in OSCSCs compared with those induced by CDDP ([5]; WIN 55,212-2 25-100 μM, compiled data): either similar or higher when compared to those induced by CDDP | cell death in OSCSCs compared with OSCCs (PI staining) ([5]; all WIN 55,212-2 concentrations tested, 24 hours, mesylate): higher cell death | cell death in OSCCs (PI staining) [6]: up to 10% | killing / decrease in cell numbers of OSCSCs, in words [7]: significantly killed; also recorded: significantly greater than OSCCs | killing / decrease in cell numbers of OSCCs, in words ([8]; WIN 55,212-2 10, 25, 50, 100 μM, CDDP 50 μg/ml, mesylate): much less; also recorded: smaller decrease in cell numbers | decrease in cell numbers of OSCC (viable cells) ([8]; WIN 55,212-2 10-100 μM): 10-25% | tumor burden, lung metastasis and tumor induced angiogenesis in vivo [9]: reduce tumor burden, lung metastasis and tumor induced angiogenesis | morphology/viability of PL-12 under the microscope [10]: maintained their morphology and remained viable | morphology/viability of OSCCs under the microscope ([11]; WIN 55,212-2 50 μM or higher, CDDP 50 μg/mL, 24 h): some of the OSCCs still remained viable but some rounded up and detached and were not viable | morphology/viability of OSCCs under the microscope ([11]; low concentrations of WIN 55,212-2, 24 h): remained viable | decreased numbers of viable cells, MP2 [12, 20]: 60-85% | percent decrease in cell numbers of MP2s, in words ([12]; various concentrations of WIN 55,212-2): significantly greater than PL12s | decreased numbers of viable cells, PL-12 [13, 20]: 50-70% | percent decrease in cell numbers of PL12, in words ([13]; various concentrations of WIN 55,212-2, CDDP 50 μg/ml): smaller decreases in cell numbers | cytostatic effect (fold change of the tumor-cell coverage of the well-plate) (tumor): arrests the tumor growth | CD44 cell surface expression, OSCSCs [14, 21]: decreased expressions | CD54 cell surface expression, OSCSCs [14, 21]: decreased expressions | PD-L1 (B7H1) cell surface expression, OSCSCs [14, 21]: decreased expressions | MHC class I expression on the cell surface, OSCSCs [14, 19]: decreases in MHC class I expression | percentages of dead cells, MP2 (PI staining) ([15]; WIN 55,212-2 25-100 μM, 24-48 hours): approximately 30% | increase in cell death in MP2s compared with PL12 (PI staining) ([15]; various concentrations of WIN 55,212-2, 48 hours): greater higher increase in cell death | percentages of dead cells, PL-12 (PI staining) [16]: up to 20% | morphology/viability of MP2 under the microscope [17]: largely lost their shape and morphology, and had detached from the plates

Reference: patent US20220331286A1, “CANNABIS LIMITS CANCER STEM CELL GROWTH IN POORLY DIFF[…]” (The Regents of the University of California, priority 2021, published 2022)
